Measurements taken from patent US9969724B2, “Factor IXa inhibitors” (Merck Sharp & Dohme Corp., priority 2014, dated 2018).

Biological target: human factor IXa (Homo sapiens (Human), UniProt P00740)
Test: Determination of Inhibitory Activity Against Factor IXa
Format: biochemical
Settings: Factor IXa enzyme assay human; read-out: FIXa IC50
Procedure: Inhibitory activity against factor IXa was tested using the substrate SPECTROFLUOR FIXa (american diagnostica inc.; 500 West Avenue, Stamford, Conn. 06902 USA; Pr. No. 299F) and human factor IXa (american diagnostica inc.; Pr. No. 449b). Test substances were dissolved in buffer A (50 mM α,α,α-tris(hydroxymethyl) methylamine (Tris), 100 mM NaCl, 5 mM CaCl2, 15% (v/v) ethylene glycol, pH 8.0) were mixed with factor IXa (0.1 μg/ml final concentration). The enzyme reaction was started by addition of SPECTROFLUOR FIXa (100 μM final concentration). After incubation for 60 minutes at room temperature, the reaction was stopped by the addition of 20% (v/v) acetic acid solution, and then the fluorescence value was measured (Excitation Wavelength: 355 nm, Emission Wavelength; 460 nm) in a microtiter plate reader (ARVO 1420 Multilabel Counter; PerkinElmer).
The IC50 was calculated from a dilution series of the test substance with the aid of the software, Symyx Assay Explorer (Symyx Technologies, Inc.).

human factor IXa, sequence (P00740 227-461): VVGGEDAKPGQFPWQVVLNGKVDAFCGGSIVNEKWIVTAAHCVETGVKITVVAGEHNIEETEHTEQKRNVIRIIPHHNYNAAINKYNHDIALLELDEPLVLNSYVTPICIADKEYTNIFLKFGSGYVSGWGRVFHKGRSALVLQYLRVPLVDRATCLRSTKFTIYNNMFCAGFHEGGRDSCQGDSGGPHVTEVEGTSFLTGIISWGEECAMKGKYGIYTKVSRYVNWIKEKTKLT
human factor IXa, sequence (P00740 47-191 partner): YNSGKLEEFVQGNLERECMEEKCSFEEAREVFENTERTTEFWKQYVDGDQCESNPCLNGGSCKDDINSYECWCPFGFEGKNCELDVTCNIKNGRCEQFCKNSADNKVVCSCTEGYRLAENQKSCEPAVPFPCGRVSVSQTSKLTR

| IC50 | Structure (SMILES) |
| --- | --- |
| ≤ 100 nM | Nc1noc2c(N3CC[C@@H](NC(=O)c4ccc(-n5cnc6ncccc65)cc4Cl)C3)ncc(Cl)c12 [Example 32, (R)—N-(1-(3-Amino-4-chloroisoxazolo[5,4-c]pyridin-7-yl)pyrrolidin-3-yl)-2-chloro-4-(1H-imidazo[4,5-b]pyridin-1-yl)benzamide] |
| ≤ 100 nM | Nc1noc2c(N3CC[C@@H](NC(=O)c4ccc(-c5cnccn5)cc4Cl)C3)ncc(Cl)c12 [Example 33, (R)—N-(1-(3-Amino-4-chloroisoxazolo[5,4-c]pyridin-7-yl)pyrrolidin-3-yl)-2-chloro-4-(pyrazin-2-yl)benzamide] |
| ≤ 100 nM | Cc1ncn(-c2ccc(C(=O)N[C@@H]3CCN(c4cc(C#N)cc5c(N)noc45)C3)c(Cl)c2)n1 [Example 34, (R)—N-(1-(3-Amino-5-cyanobenzo[d]isoxazol-7-yl)pyrrolidin-3-yl)-2-chloro-4-(3-methyl-1H-1,2,4-triazol-1-yl)benzamide] |
| ≤ 100 nM | Nc1noc2c(N3CC[C@@H](NC(=O)c4ccc(-c5ccc(=O)n(CC(F)(F)F)c5)cc4Cl)C3)ncc(Cl)c12 [Example 35, (R)—N-(1-(3-Amino-4-chloroisoxazolo[5,4-c]pyridin-7-yl)pyrrolidin-3-yl)-2-chloro-4-(6-oxo-1-(2,2,2-trifluoroethyl)-1,6-dihydropyridin-3-yl)benzamide] |
| ≤ 100 nM | Nc1noc2c(N3CC[C@@H](NC(=O)c4ccc(-n5cnnc5)cc4)C3)ncc(Cl)c12 [Example 36, (R)—N-(1-(3-Amino-4-chloroisoxazolo[5,4-c]pyridin-7-yl)pyrrolidin-3-yl)-4-(4H-1,2,4-triazol-4-yl)benzamide] |
| ≤ 100 nM | Nc1noc2c(N3CC[C@@H](NC(=O)c4ccc(-c5ccc(=O)n(C(F)F)c5)cc4Cl)C3)ncc(Cl)c12 [Example 37, (R)—N-(1-(3-Amino-4-chloroisoxazolo[5,4-c]pyridin-7-yl)pyrrolidin-3-yl)-2-chloro-4-(1-(difluoromethyl)-6-oxo-1,6-dihydropyridin-3-yl)benzamide] |
| ≤ 100 nM | Nc1noc2c(N3CC[C@@H](NC(=O)c4ccc(-c5ccc6nncn6c5)cc4Cl)C3)ncc(Cl)c12 [Example 38, (R)-4-([1,2,4]Triazolo[4,3-a]pyridin-6-yl)-N-(1-(3-amino-4-chloroisoxazolo[5,4-c]pyridin-7-yl)pyrrolidin-3-yl)-2-chlorobenzamide] |
| 100 to 1000 nM | Cc1ncn(-c2ccc(C(=O)N[C@@H]3CCN(c4nc(C(F)F)cc5c(N)noc45)C3)c(Cl)c2)n1 [Example 39, (R)—N-(1-(3-Amino-5-(difluoromethyl)isoxazolo[5,4-c]pyridin-7-yl)pyrrolidin-3-yl)-2-chloro-4-(3-methyl-1H-1,2,4-triazol-1-yl)benzamide] |
| ≤ 100 nM | Cn1nc(-c2ccc(C(=O)N[C@@H]3CCN(c4ncc(Cl)c5c(N)noc45)C3)c(Cl)c2)ccc1=O [Example 40, (R)—N-(1-(3-Amino-4-chloroisoxazolo[5,4-c]pyridin-7-yl)pyrrolidin-3-yl)-2-chloro-4-(1-methyl-6-oxo-1,6-dihydropyridazin-3-yl)benzamide] |
| ≤ 100 nM | Cc1ncn(-c2ccc(C(=O)N[C@@H]3CCN(c4nc(C#N)cc5c(N)noc45)C3)c(Cl)c2)n1 [Example 41, (R)—N-(1-(3-Amino-5-cyanoisoxazolo[5,4-c]pyridin-7-yl)pyrrolidin-3-yl)-2-chloro-4-(3-methyl-1H-1,2,4-triazol-1-yl)benzamide] |
| ≤ 100 nM | Cc1cc2c(N)noc2c(N2CC[C@@H](NC(=O)c3ccc(-n4cc(CCO)nn4)cc3Cl)C2)n1 [Example 42, (R)—N-(1-(3-Amino-5-methylisoxazolo[5,4-c]pyridin-7-yl)pyrrolidin-3-yl)-2-chloro-4-(4-(2-hydroxyethyl)-1H-1,2,3-triazol-1-yl)benzamide] |
| ≤ 100 nM | Nc1noc2c(N3CC[C@@H](NC(=O)c4ccc(-n5cnnc5C(F)(F)F)cc4Cl)C3)ncc(Cl)c12 [Example 43, (R)—N-(1-(3-Amino-4-chloroisoxazolo[5,4-c]pyridin-7-yl)pyrrolidin-3-yl)-2-chloro-4-(3-(trifluoromethyl)-4H-1,2,4-triazol-4-yl)benzamide] |
| ≤ 100 nM | Cn1cc(-c2ccc(C(=O)N[C@@H]3CCN(c4ncc(Cl)c5c(N)noc45)C3)c(Cl)c2)cnc1=O [Example 44, (R)—N-(1-(3-Amino-4-chloroisoxazolo[5,4-c]pyridin-7-yl)pyrrolidin-3-yl)-2-chloro-4-(1-methyl-2-oxo-1,2-dihydropyrimidin-5-yl)benzamide] |
| ≤ 100 nM | Cn1ncn(-c2ccc(C(=O)N[C@@H]3CCN(c4ncc(Cl)c5c(N)noc45)C3)c(Cl)c2)c1=O [Example 45, (R)—N-(1-(3-Amino-4-chloroisoxazolo[5,4-c]pyridin-7-yl)pyrrolidin-3-yl)-2-chloro-4-(1-methyl-5-oxo-1,5-dihydro-4H-1,2,4-triazol-4-yl)benzamide] |
| ≤ 100 nM | Nc1noc2c(N3CC[C@@H](NC(=O)c4ccc(-n5cn[nH]c5=O)cc4Cl)C3)ncc(Cl)c12 [Example 46, (R)—N-(1-(3-Amino-4-chloroisoxazolo[5,4-c]pyridin-7-yl)pyrrolidin-3-yl)-2-chloro-4-(5-oxo-1,5-dihydro-4H-1,2,4-triazol-4-yl)benzamide] |
| ≤ 100 nM | Nc1noc2c(N3CC[C@@H](NC(=O)c4ccc(-n5cnn(CCO)c5=O)cc4Cl)C3)ncc(Cl)c12 [Example 47, (R)—N-(1-(3-Amino-4-chloroisoxazolo[5,4-c]pyridin-7-yl)pyrrolidin-3-yl)-2-chloro-4-(1-(2-hydroxyethyl)-5-oxo-1,5-dihydro-4H-1,2,4-triazol-4-yl)benzamide] |
| ≤ 100 nM | Nc1noc2c(N3CC[C@@H](NC(=O)c4ccc(-n5cnc6cncnc65)cc4Cl)C3)ncc(Cl)c12 [Example 48, (R)—N-(1-(3-Amino-4-chloroisoxazolo[5,4-c]pyridin-7-yl)pyrrolidin-3-yl)-2-chloro-4-(9H-purin-9-yl)benzamide] |
| ≤ 100 nM | Cc1cc2c(N)noc2c(N2CC[C@@H](NC(=O)c3c(Cl)cc(-n4cnn(C)c4=O)cc3Cl)C2)n1 [Example 49, (R)—N-(1-(3-Amino-5-methylisoxazolo[5,4-c]pyridin-7-yl)pyrrolidin-3-yl)-2,6-dichloro-4-(1-methyl-5-oxo-1,5-dihydro-4H-1,2,4-triazol-4-yl)benzamide] |
| ≤ 100 nM | Nc1noc2c(N3CC[C@@H](NC(=O)c4ccc(-n5cnn(CC(F)(F)F)c5=O)cc4Cl)C3)ncc(Cl)c12 [Example 50, (R)—N-(1-(3-Amino-4-chloroisoxazolo[5,4-c]pyridin-7-yl)pyrrolidin-3-yl)-2-chloro-4-(5-oxo-1-(2,2,2-trifluoroethyl)-1,5-dihydro-4H-1,2,4-triazol-4-yl)benzamide] |
| ≤ 100 nM | Nc1noc2c(N3CC[C@@H](NC(=O)c4ccc(-n5cnc6ncncc65)cc4Cl)C3)ncc(Cl)c12 [Example 51, (R)—N-(1-(3-Amino-4-chloroisoxazolo[5,4-c]pyridin-7-yl)pyrrolidin-3-yl)-2-chloro-4-(7H-purin-7-yl)benzamide] |
| 100 to 1000 nM | Cc1ncn(-c2cnc(C(=O)N[C@@H]3CCN(c4ncc(Cl)c5c(N)noc45)C3)c(Cl)c2)n1 [Example 52, (R)—N-(1-(3-Amino-4-chloroisoxazolo[5,4-c]pyridin-7-yl)pyrrolidin-3-yl)-3-chloro-5-(3-methyl-1H-1,2,4-triazol-1-yl)picolinamide] |
| ≤ 100 nM | Nc1noc2c(N3CC[C@@H](NC(=O)c4ccc(-c5ccnc(CO)c5)cc4Cl)C3)ccc(Cl)c12 [Example 53, (R)—N-(1-(3-Amino-4-chlorobenzo[d]isoxazol-7-yl)pyrrolidin-3-yl)-2-chloro-4-(2-(hydroxymethyl)pyridin-4-yl)benzamide] |
